Assay results: US20240116985A1, “STAPLED PEPTIDES AND METHODS THEREOF” (priority 2020, published 2024)
≈ marks a conversion by molar mass, not a printed value. Where two headings read alike, the source gives them in different places.

Key:
[1] = biological target: T1, beta-catenin/TCF4 engagement (Homo sapiens, UniProt P35222); test: Nano-BRET target engagement assay (B-cat-Halo & TCF4-Luc in HEK293 cells); assay type: cell-based; conditions: read-out: NanoBRET Abs IC50
T1 construct: expressed in transfected cells; host or cells: HEK293
T1 sequence (P35222 1-781): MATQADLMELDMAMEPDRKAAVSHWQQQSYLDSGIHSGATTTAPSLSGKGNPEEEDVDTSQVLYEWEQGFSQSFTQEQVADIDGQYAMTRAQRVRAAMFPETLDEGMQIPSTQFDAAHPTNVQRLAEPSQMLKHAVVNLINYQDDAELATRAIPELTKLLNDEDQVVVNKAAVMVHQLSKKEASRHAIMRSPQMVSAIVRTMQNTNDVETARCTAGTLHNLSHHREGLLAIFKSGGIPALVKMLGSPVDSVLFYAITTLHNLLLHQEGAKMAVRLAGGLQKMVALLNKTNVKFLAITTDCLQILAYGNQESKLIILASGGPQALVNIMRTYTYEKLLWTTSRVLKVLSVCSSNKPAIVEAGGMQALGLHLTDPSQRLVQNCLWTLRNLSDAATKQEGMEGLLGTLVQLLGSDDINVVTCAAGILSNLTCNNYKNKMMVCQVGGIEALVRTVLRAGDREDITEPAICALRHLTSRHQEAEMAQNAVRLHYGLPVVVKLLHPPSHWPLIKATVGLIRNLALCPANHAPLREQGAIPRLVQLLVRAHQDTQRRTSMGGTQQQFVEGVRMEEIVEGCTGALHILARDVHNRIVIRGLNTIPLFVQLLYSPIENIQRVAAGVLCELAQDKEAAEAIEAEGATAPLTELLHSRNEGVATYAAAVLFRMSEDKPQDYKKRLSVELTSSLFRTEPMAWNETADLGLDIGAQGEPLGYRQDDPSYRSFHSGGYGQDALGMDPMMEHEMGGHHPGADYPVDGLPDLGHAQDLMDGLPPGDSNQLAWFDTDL

[2] = Solubility in PBS; assay type: physicochemical
Summary of the method: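 Steps: ultracentrifuge the peptide PBS solution, inject the supernatant on HPLC, inject a 50 μM peptide DMSO solution as reference, then calculate solubility as area ratio (PBS/DMSO) × 50 uM.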

[3] = CHI Log D procedure; assay type: physicochemical; conditions: pH 7.4, CHI Log D
[4] = biological target: T2, full-length beta-Catenin (Uniprot ID P35222) (Homo sapiens, UniProt P35222); test: Fluorescence polarization IC50 (beta-catenin / 5FAM-TCF4 10-53 competition); assay type: binding; conditions: read-out: beta-Catenin FP IC50
T2 construct: 10 nM full-length beta-Catenin (Uniprot ID P35222)
T2 sequence (P35222 1-781): T1 sequence (P35222 1-781)

Row | Structure (SMILES) | IC50 [1] [nM] | Solubility [2] [µM] | chromatographic logD [3] | IC50 [4] [nM] | Solubility ([2]; Solubility (uM)) [µM] | IC50 ([1]; absolute IC50) [nM]
1 | CC(=O)N1CCC[C@]12CC=CCCCC1(CCCC=CCCCOC(=O)N3CC[C@@](C(=O)N[C@@H](Cc4ccccc4F)C(=O)N[C@@H](Cc4csc5ccccc45)C(=O)N[C@@H](CCC(N)=O)C(N)=O)(C3)NC(=O)[C@H]([C@@H](C)O)NC(=O)[C@H](Cc3ccccc3)NC(=O)[C@H](C)NC(=O)[C@H](C)NC(=O)[C@H](CC(=O)O)NC(=O)[C@H](CC(=O)O)NC1=O)NC(=O)[C@H](CC(C)(C)C)NC(=O)[C@H](CC(=O)O)NC2=O (stereo partly drawn) [I-1021, Ac-PL3-Asp-Npg-B5-Asp-Asp-Ala-Ala-Phe-Thr-PyrS2-2FF-BztA-Gln-NH2] | – | – | 2.05 | 5 | 44 (≈ 84.4 µg/mL) | 11500
2 | CC(=O)N1CCC[C@]12CC=CCCCC1(CCCC=CCCCOC(=O)N3CC[C@@](C(=O)N[C@@H](Cc4ccccc4F)C(=O)N[C@@H](Cc4csc5ccccc45)C(=O)N[C@@H](CCC(N)=O)C(N)=O)(C3)NC(=O)[C@H]([C@@H](C)O)NC(=O)[C@H](Cc3ccccc3)NC(=O)[C@H](C)NC(=O)[C@H](C)NC(=O)[C@H](CC(N)=O)NC(=O)[C@H](CC(=O)O)NC1=O)NC(=O)[C@H](CC(C)(C)C)NC(=O)[C@H](CC(=O)O)NC2=O (stereo partly drawn) [I-1022, Ac-PL3-Asp-Npg-B5-Asp-Asn-Ala-Ala-Phe-Thr-PyrS2-2FF-BztA-Gln-NH2] | 13700 | – | 2.29 | 33 | 20 (≈ 38.3 µg/mL) | –
3 | CC(=O)N1CCC[C@]12CC=CCCCC1(CCCC=CCCCOC(=O)N3CC[C@@](C(=O)N[C@@H](Cc4ccccc4F)C(=O)N[C@@H](Cc4csc5ccccc45)C(=O)N[C@@H](CO)C(N)=O)(C3)NC(=O)[C@H]([C@@H](C)O)NC(=O)[C@H](Cc3ccccc3)NC(=O)[C@H](C)NC(=O)[C@H](C)NC(=O)[C@H](CC(=O)O)NC(=O)[C@H](CC(=O)O)NC1=O)NC(=O)[C@H](CC(C)(C)C)NC(=O)[C@H](CC(=O)O)NC2=O (stereo partly drawn) [I-1023, Ac-PL3-Asp-Npg-B5-Asp-Asp-Ala-Ala-Phe-Thr-PyrS2-2FF-BztA-Ser-NH2] | 15000 | – | 2.17 | 10 | 46 (≈ 86.3 µg/mL) | –
4 | CC(=O)N1CCC[C@]12CC=CCCCC1(CCCC=CCCCOC(=O)N3CC[C@@](C(=O)N[C@@H](Cc4ccccc4Cl)C(=O)N[C@@H](Cc4csc5ccccc45)C(=O)N[C@@H](C(N)=O)[C@H](C)O)(C3)NC(=O)[C@H](CO)NC(=O)[C@H](Cc3ccccc3)NC(=O)[C@H](C)NC(=O)[C@H](C)NC(=O)[C@H](CC(=O)O)NC(=O)[C@H](CC(=O)O)NC1=O)NC(=O)[C@H](CC(C)(C)C)NC(=O)[C@H](CC(=O)O)NC2=O (stereo partly drawn) [I-1032, Ac-PL3-Asp-Npg-B5-Asp-Asp-Ala-Ala-Phe-Ser-PyrS2-2C1F-BztA-dThr-NH2] | 10400 | – | 2.43 | 15 | 44 (≈ 83.3 µg/mL) | –
5 | CC(=O)N1CCC[C@]12CC=CCCCC1(CCCC=CCCCOC(=O)N3CC[C@@](C(=O)N[C@@H](Cc4ccccc4Cl)C(=O)N[C@@H](Cc4csc5ccccc45)C(=O)N[C@@H](C(N)=O)[C@H](C)O)(C3)NC(=O)[C@H]([C@@H](C)O)NC(=O)[C@H](Cc3ccccc3)NC(=O)[C@H](C)NC(=O)[C@H](C)NC(=O)[C@H](CC(=O)O)NC(=O)[C@H](CC(=O)O)NC1=O)NC(=O)[C@H](CC(C)(C)C)NC(=O)[C@H](CC(=O)O)NC2=O (stereo partly drawn) [I-1033, Ac-PL3-Asp-Npg-B5-Asp-Asp-Ala-Ala-Phe-Thr-PyrS2-2ClF-BztA-dThr-NH2] | 8600 | – | 2.5 | 10 | 34 (≈ 64.8 µg/mL) | –
6 | CC(=O)N1CCC[C@]12CC=CCCCC1(CCCC=CCCCOC(=O)N3CC[C@@](C(=O)N[C@@H](Cc4ccccc4Cl)C(=O)N[C@@H](Cc4csc5ccccc45)C(=O)N[C@@H](CCC(N)=O)C(N)=O)(C3)NC(=O)[C@H](CC(N)=O)NC(=O)[C@H](Cc3ccccc3)NC(=O)[C@H](C)NC(=O)[C@H](C)NC(=O)[C@H](CC(=O)O)NC(=O)[C@H](CC(=O)O)NC1=O)NC(=O)[C@H](CC1CCCCC1)NC(=O)[C@H](CC(=O)O)NC2=O (stereo partly drawn) [I-1040, Ac-PL3-Asp-Cha-B5-Asp-Asp-Ala-Ala-Phe-Asn-PyrS2-2C1F-BztA-Gln-NH2] | – | 50 (≈ 98.6 µg/mL) | 2.27 | 8 | – | 9300

Next, values leading:

Row | IC50 [1] [nM] | Solubility [2] [µM] | chromatographic logD [3] | IC50 [4] [nM] | Solubility ([2]; Solubility (uM)) [µM] | IC50 ([1]; absolute IC50) [nM] | Structure (SMILES)
7 | 37900 | 10 (≈ 21.9 µg/mL) | 2.61 | 60 | – | – | CC(=O)N1CCC[C@]12CC=CCCCC1(CCCC=CCCCOC(=O)N3CC[C@@](C(=O)N[C@@H](Cc4ccccc4Cl)C(=O)N[C@@H](Cc4csc5ccccc45)C(=O)N[C@@H](CCC(N)=O)C(=O)NCCCCCCN)(C3)NC(=O)[C@H](Cc3ccccc3)NC(=O)[C@H](Cc3ccccc3)NC(=O)[C@H](C)NC(=O)[C@H](C)NC(=O)[C@H](CN(CC(=O)O)CC(F)(F)F)NC(=O)[C@H](CC(=O)O)NC1=O)NC(=O)[C@H](CC(C)(C)C)NC(=O)[C@H](CC(=O)O)NC2=O (stereo partly drawn) [I-1012, Ac-PL3-Asp-Npg-B5-Asp-TfeGA-Ala-Ala-Phe-Phe-PyrS2-2C1F-BztA-Gln-6AmHex]
8 | 12400 | – | 2.13 | 8 | 47 (≈ 90.9 µg/mL) | – | CC(=O)N1CCC[C@]12CC=CCCCC1(CCCC=CCCCOC(=O)N3CC[C@@](C(=O)N[C@@H](Cc4ccccc4Cl)C(=O)N[C@@H](Cc4csc5ccccc45)C(=O)N[C@@H](CCC(N)=O)C(N)=O)(C3)NC(=O)[C@H]([C@@H](C)O)NC(=O)[C@H](Cc3ccccc3)NC(=O)[C@H](C)NC(=O)[C@H](C)NC(=O)[C@H](CC(=O)O)NC(=O)[C@H](CC(=O)O)NC1=O)NC(=O)[C@H](CC(C)(C)C)NC(=O)[C@H](CC(=O)O)NC2=O (stereo partly drawn) [I-1013, Ac-PL3-Asp-Npg-B5-Asp-Asp-Ala-Ala-Phe-Thr-PyrS2-2C1F-BztA-Gln-NH2]
9 | 14300 | 10 (≈ 19.3 µg/mL) | 2.38 | 19 | – | – | CC(=O)N1CCC[C@]12CC=CCCCC1(CCCC=CCCCOC(=O)N3CC[C@@](C(=O)N[C@@H](Cc4ccccc4Cl)C(=O)N[C@@H](Cc4csc5ccccc45)C(=O)N[C@@H](CCC(N)=O)C(N)=O)(C3)NC(=O)[C@H]([C@@H](C)O)NC(=O)[C@H](Cc3ccccc3)NC(=O)[C@H](C)NC(=O)[C@H](C)NC(=O)[C@H](CC(N)=O)NC(=O)[C@H](CC(=O)O)NC1=O)NC(=O)[C@H](CC(C)(C)C)NC(=O)[C@H](CC(=O)O)NC2=O (stereo partly drawn) [I-1014, Ac-PL3-Asp-Npg-B5-Asp-Asn-Ala-Ala-Phe-Thr-PyrS2-2C1F-BztA-Gln-NH2]
10 | 25800 | 10 (≈ 19.2 µg/mL) | 2.35 | 26 | – | – | CC(=O)N1CCC[C@]12CC=CCCCC1(CCCC=CCCCOC(=O)N3CC[C@@](C(=O)N[C@@H](Cc4ccccc4Cl)C(=O)N[C@@H](Cc4csc5ccccc45)C(=O)N[C@@H](CCC(N)=O)C(N)=O)(C3)NC(=O)[C@H](CO)NC(=O)[C@H](Cc3ccccc3)NC(=O)[C@H](C)NC(=O)[C@H](C)NC(=O)[C@H](CC(N)=O)NC(=O)[C@H](CC(=O)O)NC1=O)NC(=O)[C@H](CC(C)(C)C)NC(=O)[C@H](CC(=O)O)NC2=O (stereo partly drawn) [I-1018, Ac-PL3-Asp-Npg-B5-Asp-Asn-Ala-Ala-Phe-Ser-PyrS2-2C1F-BztA-Gln-NH2]
11 | – | – | 2.42 | 11 | 47 (≈ 90.9 µg/mL) | 8800 | CC(=O)N1CCC[C@]12CC=CCCCC1(CCCC=CCCCOC(=O)N3CC[C@@](C(=O)N[C@@H](Cc4ccccc4Cl)C(=O)N[C@@H](Cc4csc5ccccc45)C(=O)N[C@@H](C(N)=O)[C@H](C)O)(C3)NC(=O)[C@H](CC(N)=O)NC(=O)[C@H](Cc3ccccc3)NC(=O)[C@H](C)NC(=O)[C@H](C)NC(=O)[C@H](CCC(=O)O)NC(=O)[C@H](CC(=O)O)NC1=O)NC(=O)[C@H](CC(C)(C)C)NC(=O)[C@H](CC(=O)O)NC2=O (stereo partly drawn) [I-1031, Ac-PL3-Asp-Npg-B5-Asp-Glu-Ala-Ala-Phe-Asn-PyrS2-2C1F-BztA-dThr-NH2]
12 | – | 50 (≈ 98.3 µg/mL) | 2.08 | 8 | – | > 20000 | CC(=O)N1CCC[C@]12CC=CCCCC1(CCCC=CCCCOC(=O)N3CC[C@@](C(=O)N[C@@H](Cc4ccccc4Cl)C(=O)N[C@@H](Cc4csc5ccccc45)C(=O)N[C@@H](CCC(N)=O)C(N)=O)(C3)NC(=O)[C@H](CC(N)=O)NC(=O)[C@H](Cc3ccccc3)NC(=O)[C@H](C)NC(=O)[C@H](C)NC(=O)[C@H](CC(=O)O)NC(=O)[C@H](CC(=O)O)NC1=O)NC(=O)[C@H](Cc1ccccc1)NC(=O)[C@H](CC(=O)O)NC2=O (stereo partly drawn) [I-1041, Ac-PL3-Asp-Phe-B5-Asp-Asp-Ala-Ala-Phe-Asn-PyrS2-2C1F-BztA-Gln-NH2]
